Reference: patent publication US7638055B2, “Sludge quality” (Rhodia Operations, priority 2004, dated 2009)
Where two headings read alike, the source gives them in different places.

Experiments:
[1] = test system: protozoans and other higher organisms; conditions: 2 and 4 mg/l/day Compound X, treated sludge relative to untreated
Text: (§1) A series of semi-continuous chemostat reactors was constructed to simulate wastewater treatment processes.
(§2) The central part of the equipment is the biological chemostat reactor 1. The reactor vessel 2 is made of glass, with an internal volume of 10 liters and is fitted with pH 3 and dissolved oxygen 4 sensors and an air sparge 5. This contains the sludge, which is, essentially, a mass of typical wastewater treatment microorganisms. The reactor operates at an ambient temperature (approximately 20° C.).
(§3) Simulated wastewater 13 is contained in a separate vessel 6 and maintained at 4° C. to prevent microbial spoilage. It is transferred into the reactor via a supply line 7 and a peristaltic pump 8.
(§4) A recirculating line 9 is provided on the reactor comprising a length of flexible silicone tubing and a peristaltic pump 10. The peristaltic pump extracts the sludge from the reactor into the recirculation line. The candidate water-soluble biocide is introduced into this line 9 through a needle 11, which is fed by a syringe pump 12. Using this system it is possible to achieve “flash mixing” which ensures rapid contact of the water-soluble biocide with the sludge microorganisms. […]
(§5) Compound X was evaluated in the test. […] Two concentrations were evaluated: 2 and 4 milligrams per liter per day, as well as a control with no treatment by Compound X.

[2] = test system: filamentous bacteria in the sludge; conditions: 2 and 4 mg/l/day Compound X, flash mixing, vs untreated control, 52 day experiment
Text: as §1, §2, §3, §4, §5

[3] = test system: filamentous bacteria; conditions: for Observations (filamentous bacteria): sample 48 days after start up, magnification x220
Method: Samples were taken from the semi-continuous reactors described in Example 1, 48 days after the start up of the trial.
A sample of each of the Compound X concentrations tested in the reactors of Example 1 was evaluated in this test. Accordingly, samples with 2 and 4 milligrams per liter per day treatment of Compound X were tested, as well as a control with no treatment by Compound X.
The samples were observed through phase contrast microscope magnification×220.

**Q.** Which “concentration of protozoans and other higher organisms in the sludge” value [1] does the source give for “tetrakis(hydroxymethyl)phosphonium sulphate [Compound X]” here?
**A.** significantly higher concentration of protozoans and other higher organisms

**Q.** And the “filamentous bacteria in the sludge” value [2]?
**A.** substantially absent

**Q.** What about the “Observations (filamentous bacteria)” value ([3]; 2 mg/l/day) of the same substance?
**A.** No filamentous bacteria present,

**Q.** And the “Observations (filamentous bacteria)” value ([3]; 4 mg/l/day)?
**A.** No filamentous bacteria present,

**Q.** What about the “reduction of filamentous bacteria and sludge settling” value ([3]; two doses of 4 mg/l/day (4 mg/l dose on two consecutive days)) of the same substance?
**A.** Reduction of filamentous bacteria and thus improved sludge settling

**Q.** And the “level of filaments after treatment was stopped” value ([3]; two doses of 4 mg/l/day, without further treatment)?
**A.** remained low for more than one week
